Consider eleven molecules from patent publication US10428054B2, “Kynurenine-3-monooxygenase inhibitors, pharmaceutical compositions, and methods of use thereof” (CHDI Foundation, Inc., priority 2013, dated 2019).

The structures appear in SMILES notation. Like-named read-outs stand apart in the source and are kept apart here.

This test deals with T1, KMO mouse enzyme (Mus musculus, UniProt Q91WN4).
T1 construct: KMO enzyme prepared at Evotec from mouse liver (4-6 weeks old) via mitochondria isolation; from tissue; host or cells: mouse liver (4-6 weeks old), mitochondria isolation, prepared at Evotec
Kind of test: KMO enzyme assay: L-Kynurenine hydroxylation to 3-Hydroxy-Kynurenine by LC/MS (protocols substantially similar to Biology Example 3). Type of test: biochemical. The note with it: for inhibition at 10 µM: compound at 10 uM (stated in cell; head says 30 μM). As for the experimental part: A method of monitoring L-Kynurenine (KYN) hydroxylation to form 3-Hydroxy-Kynurenine (30H-KYN) by LC/MS is described. Product is quantified by multiple reaction monitoring (MRM method).
• Compound: Stock concentrations: 10 mM in 100% DMSO • Enzyme: KMO enzyme prepared at Evotec from mouse liver (4-6 weeks old) via mitochondria isolation as described in the literature • Substrate: L-Kynurenine (Sigma: Cat# K3750, stock concentration: 10 mM in 100 mM potassium phosphate buffer, pH 7.4) Assay Conditions: • Buffer: 100 mM potassium phosphate, pH 7.4, 200 μM NADPH, 0.4 U/ml G6P-DH (Glucose 6-phosphate Dehydrogenase), 3 mM G6P (D-Glucose 6-phosphate) • Assay Volume: 40 μl • Plate Format: 384 well plate, transparent (Matrix) • Read-Out: product (30H-KYN) quantification using product specific MRM • Reader: LC/MS/MS Assay Protocol: • prepare serial dilution (factor 3) of compound in 100% DMSO (top concentration=10 mM, 100% DMSO) • [8 points: 10 mM; 3.33 mM; 1.11 mM; 0.37 mM; 0.12 mM; 0.04 mM; 0.0137 mM; 0.0045 mM, 0.0015 mM] • prepare […] concentrated solution of each compound concentration (top concentration 300 μM, 3% DMSO) in assay buffer • [concentrations: 300 μM; 100 μM; 33.3 μM; 11.1 μM; 3.70 μM; 1.23 μM; 0.41 μM; 0.137 μM] • prepare substrate (10 mM) at concentration of 1 mM in assay buffer • assay mix: 4 μl compound/well of each concentration+24 μl assaybuffer/well+8 μl KMO mouse enzyme+4 μl 1 mM substrate (final concentration=100 μM) • [final compound top concentration: 30 μM; 0.3% DMSO] • [final compound bottom concentration: 0.0137 μM; 0.3% DMSO] • positive control: 4 μl […] FCE28833 in assay buffer, 0.5% DMSO [final assay concentration=50 μM]+24 μl assaybuffer/well+8 μl KMO mouse enzyme+4 μl 1 mM substrate[final concentration=100 μM] • negative control: 28 μl assay buffer/well+8 μl KMO mouse enzyme+4 μl 1 mM substrate [final concentration=100 μM] • incubate 40 min at RT • add 40 μl/well 10% trichloro acetic acid in water to stop the assay and precipitate protein • centrifuge plate for 3 min at 4000 rpm • product detection by LC/MS (injection of 20 μl/well, 2 fold overfill of the 10 μl sample loop) Data Analysis:
IC50's are calculated using automated fitting algorithm (A+ Analysis).
Using the assay protocols substantially similar to those of Biology Example 3, the following compounds were tested.

[1] abbreviates: compound at 30 μM, Biology Example 4 table, read-out: Percent Inhibition at 30 μM.
[2] abbreviates: compound at 30 μM, tables of Methods 1-6, read-out: % Inhibition at 30 μM.

T1 sequence (Q91WN4 whole entry): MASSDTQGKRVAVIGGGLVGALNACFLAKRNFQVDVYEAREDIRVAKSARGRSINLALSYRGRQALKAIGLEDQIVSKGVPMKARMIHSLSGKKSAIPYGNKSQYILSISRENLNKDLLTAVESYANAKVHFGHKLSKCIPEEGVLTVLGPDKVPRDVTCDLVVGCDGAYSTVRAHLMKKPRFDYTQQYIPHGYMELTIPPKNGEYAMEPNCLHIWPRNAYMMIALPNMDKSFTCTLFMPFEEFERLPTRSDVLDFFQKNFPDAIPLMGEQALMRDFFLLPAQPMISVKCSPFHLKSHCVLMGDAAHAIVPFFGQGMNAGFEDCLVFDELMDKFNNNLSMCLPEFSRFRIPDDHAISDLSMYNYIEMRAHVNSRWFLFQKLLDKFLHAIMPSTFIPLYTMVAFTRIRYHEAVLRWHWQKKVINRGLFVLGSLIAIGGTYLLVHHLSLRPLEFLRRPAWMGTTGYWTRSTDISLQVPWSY

Regarding `O=C(O)[C@H]1C[C@@H]1C(=O)c1ccc(Cl)s1` [Example 1, Method 1, (1S,2S)-2-[(5-Chlorothiophen-2-yl)carbonyl]cyclopropane-1-carboxylic acid], the inhibition at 30 µM by setting is: under setting [1], 101%; under setting [2], 101%.
As for `O=C(O)[C@H]1C[C@@H]1C(=O)c1nccs1` [Example 1, Method 2, (1S,2S)-2-[(1,3-Thiazol-2-yl)carbonyl]cyclopropane-1-carboxylic acid], the inhibition at 10 µM (Biology Example 4 table, read-out: Percent Inhibition (at 10 uM)) came out at 28.7% and the inhibition at 10 µM (table of Method 2, read-out: % Inhibition (at 10 uM)) turned out to be 28.7%.
Turning to `Cc1nc2ccc(C(=O)[C@H]3C[C@@H]3C(=O)O)cc2s1` [Example 1, Method 3, (1S,2S)-2-(2-Methyl-1,3-benzothiazole-6-carbonyl)cyclopropane-1-carboxylic acid], the inhibition at 30 µM under setting [1] is 74.5%. Besides, where the note is “compound at 30 μM, tables of Methods 1-6, 30 µM”, the “% Inhibition at 30 μM” value amounted to 98.3%.
`O=C(O)[C@H]1C[C@@H]1C(=O)c1cc(Cl)c2occc2c1` [Example 1, Method 4, (1S,2S)-2-(7-Chloro-1-benzofuran-5-carbonyl)cyclopropane-1-carboxylic acid]: the inhibition at 30 µM under setting [1] was determined as 100% and the inhibition at 30 µM under setting [2] amounted to 100%.
In the case of `Cc1cc2cc(C(=O)[C@H]3C[C@@H]3C(=O)O)cc(Cl)c2o1` [Example 1, Method 6, (1S,2S)-2-(7-chloro-2-methyl-1-benzofuran-5-carbonyl)cyclopropane-1-carboxylic acid], the inhibition at 30 µM under setting [2] was determined as 102%.
On to `O=C(O)[C@H]1C[C@@H]1C(=O)c1ccsc1` [Example 2, Method 1, (1S,2S)-2-[(Thiophen-3-yl)carbonyl]cyclopropane-1-carboxylic acid], for which the inhibition at 30 µM is, setting by setting: under setting [1], 83.2%; under setting [2], 83.2%.
On to `O=C(O)[C@H]1C[C@@H]1C(=O)c1nc2ccccc2s1` [Example 2, Method 2, (1S,2S)-2-[(1,3-Benzothiazol-2-yl)carbonyl]cyclopropane-1-carboxylic acid], for which the inhibition at 30 µM reads like this: under setting [1], 91.8%; under setting [2], 91.8%.
Take `O=C(O)[C@H]1C[C@@H]1C(=O)c1cc(Cl)c2nccnc2c1` [Example 2, Method 3, (1S,2S)-2-(8-Chloroquinoxaline-6-carbonyl)cyclopropane-1-carboxylic acid]: the inhibition at 30 µM runs as follows: under setting [1], 101%; under setting [2], 101%.
For `O=C(O)[C@H]1C[C@@H]1C(=O)c1cccs1` [Example 3, Method 1, (1S,2S)-2-[(Thiophen-2-yl)carbonyl]cyclopropane-1-carboxylic acid], the inhibition at 30 µM reads like this: under setting [1], 80.3%; under setting [2], 80.3%.
Consider `O=C(O)[C@H]1C[C@@H]1C(=O)c1ccccn1` [Example 3, Method 2, (1S,2S)-2-[(Pyridin-2-yl)carbonyl]cyclopropane-1-carboxylic acid], for which the inhibition at 30 µM under setting [1] came out at 45.6% and the inhibition at 30 µM under setting [2] was found to be 45.6%.
For the molecule `O=C(O)[C@H]1C[C@@H]1C(=O)c1cc(Cl)c2ncccc2c1` [Example 3, Method 3, (1S,2S)-2-(8-Chloroquinoline-6-carbonyl)cyclopropane-1-carboxylic acid], the inhibition at 30 µM is 100% under setting [1] and 100% under setting [2].
